Values quoted from earlier work as cited in article PMC9697394, “Recent Synthesis, Characterization, and Pharmacological Evaluation of Multifunctional Hemorphins Containing Non-Natural Amino Acids with Potential Biological Importance” (Pharmaceuticals, 2022).
Read-outs that look alike come from different tables or passages of the source. Where no end group is shown, it is not given here. [ ]: non-standard residue; d: D form. Ac6c = NC1(C(=O)O)CCCCC1; Orn = NCCC[C@H](N)C(=O)O; Ac5c = NC1(C(=O)O)CCCC1; Dab = NCC[C@H](N)C(=O)O; Dap = NC[C@H](N)C(=O)O; Aib = CC(C)(N)C(=O)O; Sar = CNCC(=O)O

What was measured:
[1] = system: mice; conditions: MES test in mice
[2] = system: mice; conditions: rotarod
[3] = for isoelectric point (pI): Figure 6; for charge at pH 7.4 (in words): based on pKa constants and isoelectric points
Source text: The structure–activity relationship of a series of new analogs of the shortest of all hemorphins, hemorphin-4, was elucidated by Todorov et al. (compounds P4-1, P4-2, P4-3, P4-4, and P4-5). Modifications have been made by replacing Pro at position 2 with the unnatural and conformationally restricted amino acids Ac5c and Ac6c, as well as introducing the adamantane residue from the N-terminus of the hemorphin-4 molecule that would lead to multiple target systems. […] It is known that some identical amino acid residues can have different reactivity with respect to given chemical reagents. For example, in an enzyme molecule, only one or a small number of side chains of amino acid residues located in the “active” center can bind substrates or coenzymes, while others with the same chemical composition cannot. As is known, a large part of the hydro ...

[4] = system: mice; conditions: 6 Hz test in mice, TPE 10 min
Source text: Modifications have been made by replacing Pro at position 2 with the unnatural and conformationally restricted amino acids Ac5c and Ac6c, as well as introducing the adamantane residue from the N-terminus of the hemorphin-4 molecule that would lead to multiple target systems.

[5] = by potentiometric titration
Source text: Table 6 Parameters of the voltammetric measurements and the electrochemical data of peptides. | column: pKa1; pKa2 Constants

[6] = system: rat; conditions: rat blood pressure assay
Source text: Table 5 Bioactive hemorphin peptides. | column: Concentration/Dose; Effect

[7] = system: rat; conditions: Barnes circular maze in rat; 100 pmol
Source text: (§1) Table 5 Bioactive hemorphin peptides. | column: Effect

[8] = system: WK rats and SHRs; conditions: radiotelemetry in WK rats and SHRs; 100 µg/kg
Source text: as §1

[9] = at the spinal level; 27.2 nmol i.t.
Source text: as §1

[10] = system: rat locus coeruleus neurons; conditions: in vitro LC neurons; read-out: IC50, inhibition of the spontaneous firing
Source text: (§2) Table 5 Bioactive hemorphin peptides. | column: Concentration/Dose

[11] = system: L929 and K562 tumor cells; conditions: 10^−7–10^−13 M concentration range
Source text: as §1

[12] = system: cerebellar Purkinje cells; conditions: in vitro cerebellar Purkinje cells
Source text: as §1

[13] = system: tumor (L929 and A549) cell cultures; conditions: 0.5 µM epirubicin added 24 h prior to 1 µM valorphin; 1 µM valorphin added 48 h prior to 0.1 µM epirubicin
Source text: as §1

[14] = system: mice; rat; conditions: hot plate, tail flick test in mice; Randall–Selitto test in rat
Source text: as §1

[15] = target: rat mu-opioid receptor; conditions: merged cell of Table 5; read-out: IC50, binds to rat mu-opioid receptor
Source text: as §2

[16] = system: guinea pig ileum muscle preparation; conditions: merged cell of Table 5, read-out: IC50, inhibition of the electrically induced contractions
Source text: as §2

[17] = system: mice; conditions: ivPTZ seizure test in mice; TPE 10 min; rank order, hemorphin-7 analogs containing unnatural amino acids
Source text: Moreover, this peptide analog had the lowest ...

[18] = TPE 10 min, hemorphin-4 analogs
[19] = Table 2 (MES), TPE 10 min, hemorphin-4 analogs, unit inferred
[20] = TPE 10 min, LVV- and VV-hemorphin-7 analogs
[21] = Table 2 (MES), LVV- and VV-hemorphin-7 analogs, unit inferred
[22] = TPE 10 min, VV-hemorphin-5 analogs
[23] = Table 2 (MES), VV-hemorphin-5 analogs, unit inferred
[24] = LVV- and VV-hemorphin-7 analogs
[25] = VV-hemorphin-7 analogs containing unnatural amino acids

O=C1NC(=O)C(c2ccccc2)(c2ccccc2)N1 [Phenytoin, 5,5′-diphenylhydantoin, reference compound]
ED50 (median effective dose) ([1]; TPE 60 min, reference drug, ref not given): 4.92 mg/kg
TD50 (median minimal neurotoxic dose) ([2]; TPE 60 min, Table 2, ref not given): >100 mg/kg

Aaa-Tyr-Ac5c-Trp-Thr-NH2 [P4-4]
ED50 (median effective dose) [1, 18]: 2.33 µg
isoelectric point (pI) [3]: about 7
charge at pH 7.4 (in words) [3]: positively charged
ED50 (median effective dose) ([4]; hemorphin-4 analogs): 0.44 µg
TD50 (median minimal neurotoxic dose) [2, 19]: > 10 mg/kg
pKa1 [5]: 6.16
pKa2 [5]: 8.90

Aaa-Tyr-Ac6c-Trp-Thr-NH2 [P4-5]
ED50 (median effective dose) [1, 18]: 0.41 µg
isoelectric point (pI) [3]: about 7
charge at pH 7.4 (in words) [3]: positively charged
ED50 (median effective dose) ([4]; hemorphin-4 analogs): 0.64 µg
TD50 (median minimal neurotoxic dose) [2, 19]: > 10 mg/kg
pKa1 [5]: 6.20
pKa2 [5]: 9.06

Aaa-Tyr-Pro-Trp-Thr-NH2 [P4-3]
ED50 (median effective dose) [1, 18]: 1.66 µg
ED50 (median effective dose) ([4]; hemorphin-4 analogs): 0.83 µg
TD50 (median minimal neurotoxic dose) [2, 19]: > 10 mg/kg
pKa1 [5]: 3.88
pKa2 [5]: 6.93

D-Leu-Val-Val-Tyr-Pro-Trp-Thr-Gln-Arg-D-Phe-NH2 [H7-3]
ED50 (median effective dose) [1, 20]: 0.68 µg
TD50 (median minimal neurotoxic dose) [2, 21]: > 8 mg/kg
pKa1 [5]: 3.05
pKa2 [5]: 6.78

DGRVVYPWTQRFRGD-NH2 [RGD2]
pKa1 [5]: 3.48
pKa2 [5]: 6.34

IVVYPWTQ-NH2 [V6]
ED50 (median effective dose) [1, 22]: 16.77 µg
ED50 (median effective dose) ([4]; VV-hemorphin-5 analogs): 5.55 µg
TD50 (median minimal neurotoxic dose) [2, 23]: > 20 mg/kg
pKa constant (one value given) [5]: 8.01, [48, 49]

IVVYPWTQR[dF]-NH2 [H7-1]
ED50 (median effective dose) [4, 24]: 0.33 µg
pKa1 [5]: 2.98
pKa2 [5]: 6.12

IVYPWTQR[dF]-NH2 [H7-2]
ED50 (median effective dose) [1, 20]: 0.94 µg
ED50 (median effective dose) [4, 24]: 2.6 µg
TD50 (median minimal neurotoxic dose) [2, 21]: > 8 mg/kg
pKa1 [5]: 3.09
pKa2 [5]: 6.62

Leu-Val-Val-Tyr-Pro-Trp-Thr-Gln-Arg-Phe [LVV-hemorphin-7]
cardiovascular activity (in words) [6]: pressor and tachycardic activities mediated by the SNS
ED25 ([6]; pressor activity): 128.0 nmol/kg
effect on spatial learning (in words) [7]: enhanced spatial learning
effect on blood pressure (in words) [8]: Reduce blood pressure
effect on carrageenan-induced hyperalgesia (in words) [9]: decrease

Tyr-D-Arg-Phe-Lys-NH2 [DALDA]
IC50 [10]: 20 nM

Tyr-Pro-Leu-Gly-NH2 [Tyr-MIF-1]
IC50 [10]: 37500 nM

Tyr-Pro-Phe-Phe-NH2 [endomorphin-2]
IC50 [10]: 5.3 nM

Tyr-Pro-Phe-Pro-NH2 [morphiceptin]
IC50 [10]: 65 nM

Tyr-Pro-Trp-Gly-NH2 [Tyr-W-MIF-I]
IC50 [10]: 3800 nM

Tyr-Pro-Trp-Phe-NH2 [endomorphin-1]
IC50 [10]: 8.8 nM

Tyr-Pro-Trp-Thr [hemorphin-4]
IC50 [10]: 6700 nM

VVYPWTK-NH2 [V5]
ED50 (median effective dose) [1, 22]: 3.19 µg
ED50 (median effective dose) ([4]; VV-hemorphin-5 analogs): 9.89 µg
TD50 (median minimal neurotoxic dose) [2, 23]: > 20 mg/kg
pKa constant (one value given) [5]: 8.24, [48, 49]

VVYPWTQ [Valorphin]
effect on tumor cells (in words) [11]: Tumor cell cytolysis
effect on spontaneous firing (in words) [12]: inhibition of the spontaneous firing
cell death [13]: 100%
analgesic effect (in words) [14]: opioid analgesic activity
IC50 [15]: 14 nM
IC50 [16]: 10000 nM

VVYPWTQRFRGD-NH2 [RGD1]
pKa1 [5]: 3.53
pKa2 [5]: 6.42

VVYPWT[Dab]-NH2 [V3]
pKa constant (one value given) [5]: 8.12, [48, 49]

VVYPWT[Dab]RF-NH2 [VV-H-5]
ED50 (median effective dose) [4, 25]: 0.89 µg
pKa (Dap, Dab) [5]: 7.21
pKa (Tyr) [5]: 5.98
pKa (Val) [5]: 8.08

VVYPWT[Dap]-NH2 [V2]
ED50 (median effective dose) ([4]; VV-hemorphin-5 analogs): 9.97 µg
pKa constant (one value given) [5]: 9.23, [48, 49]

VVYPWT[Dap]RF-NH2 [VV-H-4]
ED50 (median effective dose) [4, 25]: 3.83 µg
pKa (Dap, Dab) [5]: 5.46
pKa (Tyr) [5]: 3.14
pKa (Val) [5]: 7.10
Comparison of Activity Related to the Threshold Dose (µg/10 µL) for Clonic Seizures [17]: VV–H7 = V–H4

VVYPWT[Orn]-NH2 [V4]
ED50 (median effective dose) [1, 22]: 3.63 µg
ED50 (median effective dose) ([4]; VV-hemorphin-5 analogs): 5.09 µg
TD50 (median minimal neurotoxic dose) [2, 23]: > 20 mg/kg
pKa constant (one value given) [5]: 7.83, [48, 49]

VVY[Ac5c]WTQRF-NH2 [VV-H-2]
ED50 (median effective dose) [4, 25]: 5.69 µg
pKa (Tyr) [5]: 5.34
pKa (Val) [5]: 8.04

VVY[Ac5c]WT[Dab]RF-NH2 [VV-H-7]
ED50 (median effective dose) [4, 25]: 0.89 µg
pKa (Dap, Dab) [5]: 7.26
pKa (Tyr) [5]: 4.70
pKa (Val) [5]: 8.21

VVY[Ac5c]WT[Dap]RF-NH2 [VV-H-6]
pKa (Dap, Dab) [5]: 6.87
pKa (Tyr) [5]: 4.72
pKa (Val) [5]: 8.15

VVY[Ac6c]WTQRF-NH2 [VV-H-3]
ED50 (median effective dose) [4, 25]: 5.69 µg
pKa (Tyr) [5]: 4.83
pKa (Val) [5]: 7.49

VVY[Ac6c]WT[Dab]RF-NH2 [VV-H-9]
ED50 (median effective dose) [4, 25]: 1.09 µg
pKa (Dap, Dab) [5]: 8.80
pKa (Tyr) [5]: 4.66
pKa (Val) [5]: 9.08

VVY[Ac6c]WT[Dap]RF-NH2 [VV-H-8]
ED50 (median effective dose) [4, 25]: 1.01 µg
pKa (Dap, Dab) [5]: 8.03
pKa (Tyr) [5]: 5.27
pKa (Val) [5]: 9.20

Y[Ac5c]WT-NH2 [P4-1]
ED50 (median effective dose) ([4]; hemorphin-4 analogs): 0.52 µg
pKa1 [5]: 3.89
pKa2 [5]: 6.52

Y[Ac6c]WT-NH2 [P4-2]
ED50 (median effective dose) [1, 18]: 2.33 µg
ED50 (median effective dose) ([4]; hemorphin-4 analogs): 2.16 µg
TD50 (median minimal neurotoxic dose) [2, 19]: > 10 mg/kg
pKa1 [5]: 3.93
pKa2 [5]: 6.71

Y[dR]F[Sar] [TAPS]
IC50 [10]: 1.9 nM

[Aib]VVYPWTQ-NH2 [V7]
ED50 (median effective dose) [1, 22]: 16.55 µg
ED50 (median effective dose) ([4]; VV-hemorphin-5 analogs): 6.61 µg
TD50 (median minimal neurotoxic dose) [2, 23]: > 20 mg/kg
pKa constant (one value given) [5]: 8.17, [48, 49]

[dV]VYPWTQR[dF]-NH2 [H7-4]
ED50 (median effective dose) [1, 20]: 2.54 µg
TD50 (median minimal neurotoxic dose) [2, 21]: > 15 mg/kg
pKa1 [5]: 3.22
pKa2 [5]: 6.52

rhodamineB-Gly-Tyr-Pro-Trp-Thr-NH2 [Rh-1]
pKa1 [5]: 2.81
pKa2 [5]: 6.60

rhodamineB-β-Ala-Tyr-Pro-Trp- Thr-NH2 [Rh-2]
pKa1 [5]: 2.78
pKa2 [5]: 6.38

rhodamineB-γ-Abu-Tyr-Pro-Trp-Thr-NH2 [Rh-3]
pKa1 [5]: 2.86
pKa2 [5]: 6.39
